Literature values in article PMC7520961, “Safety evaluation of the interchangeable use of robenacoxib in commercially-available tablets and solution for injection in cats” (BMC Veterinary Research, 2020).

Legend:
humans = conditions: in vivo; cited from earlier work
anesthetized cats = conditions: cited from earlier work

Row | Compound | adverse oral reaction (humans) | QT interval maximum (anesthetized cats; almokalant infusion) | lengthening of the QT interval (anesthetized cats; almokalant infusion) | QT interval before lengthening (anesthetized cats; before almokalant effect)
1 | CS(=O)(=O)c1ccc(C2=C(c3ccccc3)C(=O)OC2)cc1 [rofecoxib] | Oral ulceration | – | – | –
2 | CCC[S+]([O-])CCCN(CC)CC(O)COc1ccc(C#N)cc1 (stereo not shown) [almokalant] | – | 349 ± 8.0 ms | approximately 45% | 241 ± 6.0 ms
